Experimental data taken from publication PMC4674796, “Only a minority of broad-range detoxification genes respond to a variety of phytotoxins in generalist Bemisia tabaci species” (Scientific Reports, 2015).

Columns and labels:
[1] = target: T1, BtGST2 (Bemisia tabaci, UniProt A0A9P0F9D9); test: inhibition of CDNB/GSH conjugation, absorbance at […] nm; assay type: biochemical; conditions: read-out: % inhibition at 0.5 mM
T1 construct: gene BEMITA_LOCUS12014
T1 sequence (A0A9P0F9D9 1-204): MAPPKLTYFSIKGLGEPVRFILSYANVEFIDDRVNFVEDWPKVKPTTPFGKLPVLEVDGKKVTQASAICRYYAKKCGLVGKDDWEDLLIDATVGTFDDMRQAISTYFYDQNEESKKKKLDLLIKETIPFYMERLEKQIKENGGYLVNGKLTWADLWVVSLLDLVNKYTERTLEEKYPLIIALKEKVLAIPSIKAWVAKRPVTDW

[2] = target: T1, BtGST2; test: GSH/CDNB conjugation, absorbance at […] nm, Michaelis-Menten fit; assay type: biochemical; conditions: co-substrate GSH 2.75 mM, CDNB 0.06-3 mM; 0.1 M potassium phosphate pH 6.5, 25 °C

Structure (SMILES) | inhibition at 500 µM [1] [%] | Km [2] [µM]
C=CCN=C=S [AITC] | 40.9 ± 5.08 | 
O=[N+]([O-])c1ccc(Cl)c([N+](=O)[O-])c1 [CDNB, 1-Chloro-2,4-dinitrobenzene] |  | 710 ± 160
O=c1cc(-c2ccccc2)oc2ccccc12 [Flavone, 2-phenyl chromone] | 67.3 ± 8.65 | 
OCc1c[nH]c2ccccc12 [I3C] | 20.9 ± 7.99 | 
CN1CCC[C@H]1c1cccnc1 [Nicotine] | 6.64 ± 3.68 | 
O=c1c(O)c(-c2ccc(O)c(O)c2)oc2cc(O)cc(O)c12 [Quercetin hydrate] | 97.6 ± 2.43 | 
